Among the data in PubChem BioAssay AID1259407 (Chemical Carcinogenesis Research Information System (CCRIS), 2018) are mutagenic call values, retold here.

The source made the active and inactive calls. The rule behind the calls is not given here.

The subject of this series is CCRIS mutagenicity, Ames/micronucleus/aberration tests. Nature of the series: CCRIS mutagenicity studies.
The mark [1] stands for this setting: Test System: AMES SALMONELLA TYPHIMURIUM, Strain/Indicator: TA98, Metabolic Activation: NONE, Method: PREINCUBATION
The mark [2] stands for this setting: Test System: AMES SALMONELLA TYPHIMURIUM, Strain/Indicator: TA100, Metabolic Activation: NONE, Method: PREINCUBATION
Setting [3] is: Test System: AMES SALMONELLA TYPHIMURIUM, Strain/Indicator: TA100, Metabolic Activation: NONE, Method: STANDARD PLATE.
[4] abbreviates: Test System: AMES SALMONELLA TYPHIMURIUM, Strain/Indicator: TA100, Metabolic Activation: RAT, LIVER, S-9, AROCLOR 1254, Method: PREINCUBATION
The mark [5] stands for this setting: Test System: AMES SALMONELLA TYPHIMURIUM, Strain/Indicator: TA1535, Metabolic Activation: NONE, Method: PREINCUBATION

With `CCN(N=O)C(N)=O`, the mutagenic call is “inactive; negative” (End Point: IN VITRO CHROMOSOMAL ABERRATIONS, Test System: CHINESE HAMSTER V79-E CELLS, Metabolic Activation: NONE); “active; positive” (End Point: IN VITRO MICRONUCLEUS, Test System: CHL/IU CELLS, Metabolic Activation: NONE); “active; positive” (End Point: IN VIVO MICRONUCLEUS, Test System: BLOOD ERYTHROCYTES, Species: MOUSE, Strain/Sex: CD-1/MALE, Route: ORAL); “active; positive” (Test System: AMES SALMONELLA TYPHIMURIUM, Strain/Indicator: TA98, Metabolic Activation: HAMSTER, LIVER, S-9, AROCLOR 1254 (30%), Method: PREINCUBATION); “active; positive” under setting [1]; “active; positive” (Test System: AMES SALMONELLA TYPHIMURIUM, Strain/Indicator: TA98, Metabolic Activation: RAT, LIVER, S-9, AROCLOR 1254 (30%), Method: PREINCUBATION). The mutagenic call by setting is: (Test System: AMES SALMONELLA TYPHIMURIUM, Strain/Indicator: TA100, Metabolic Activation: HAMSTER, LIVER, S-9, AROCLOR 1254 (30%), Method: PREINCUBATION) “active; positive”; under setting [2], “active; positive”; under setting [3], “active; positive”; (Test System: AMES SALMONELLA TYPHIMURIUM, Strain/Indicator: TA100, Metabolic Activation: RAT, LIVER, S-9, AROCLOR 1254 (30%), Method: PREINCUBATION) “active; positive”; under setting [4], “active; positive”; (Test System: AMES SALMONELLA TYPHIMURIUM, Strain/Indicator: TA102, Metabolic Activation: RAT, LIVER, S-9, AROCLOR 1254, Method: PREINCUBATION) “active; positive”. For the same molecule, the mutagenic call by setting is: (Test System: AMES SALMONELLA TYPHIMURIUM, Strain/Indicator: TA104, Metabolic Activation: RAT, LIVER, S-9, AROCLOR 1254, Method: PREINCUBATION) “active; positive”; (Test System: AMES SALMONELLA TYPHIMURIUM, Strain/Indicator: TA1535, Metabolic Activation: NONE) “active; positive”; under setting [5], “active; positive”; (Test System: AMES SALMONELLA TYPHIMURIUM, Strain/Indicator: TA1535, Metabolic Activation: RAT, LIVER, S-9, AROCLOR 1254, Method: STANDARD PLATE) “active; positive”; (Test System: AMES SALMONELLA TYPHIMURIUM, Strain/Indicator: YG7104, Metabolic Activation: NONE, Method: PREINCUBATION) “active; positive”; (Test System: AMES SALMONELLA TYPHIMURIUM, Strain/Indicator: YG7108, Metabolic Activation: NONE, Method: PREINCUBATION) “active; positive”. Moreover, the mutagenic call is “active; positive” (Test System: AMES SALMONELLA TYPHIMURIUM, Strain/Indicator: YG7112, Metabolic Activation: NONE, Method: PREINCUBATION); “active; positive” (Test System: AMES SALMONELLA TYPHIMURIUM, Strain/Indicator: YG7113, Metabolic Activation: NONE, Method: PREINCUBATION); “active; positive” (Test System: CHINESE HAMSTER OVARY, Strain/Indicator: CHO-K1-BH4 (HGPRT), Metabolic Activation: NONE, Method: STANDARD PLATE); “active; positive” (Test System: CHINESE HAMSTER V-79, Strain/Indicator: V-79/6-THIOGUANINE, Metabolic Activation: NONE, Method: FLASK ASSAY); “active; positive” (Test System: E. COLI B, Strain/Indicator: H/R30R, Metabolic Activation: NONE); “active; positive” (Test System: E. COLI B, Strain/Indicator: HS30R, Metabolic Activation: NONE). Further, the mutagenic call (Test System: E. COLI, Strain/Indicator: WP2, Metabolic Activation: NONE, Method: STANDARD PLATE) is “active; positive”; the mutagenic call (Test System: E. COLI, Strain/Indicator: WP2 UVRA, Metabolic Activation: NONE, Method: STANDARD PLATE) is “active; positive”; the mutagenic call (Test System: LacZ plasmid mouse (C57BL/6J transgenic), Strain/Indicator: LacZ Mutant frequency, Method: Bone marrow and liver harvested 35 days after last dose) was “active; positive”; the mutagenic call (Test System: LacZ transgenic mouse (Muta Mouse), Strain/Indicator: LacZ Mutant frequency, Method: Bone marrow and liver harvested 35 days after last dose) was “active; positive”; the mutagenic call (Test System: MOUSE LYMPHOMA, Strain/Indicator: L5178Y(TK+/TK-), Metabolic Activation: NONE, Method: MICROWELL) was “active; positive”; the mutagenic call (Test System: UDS HUMAN FIBROBLASTS, Strain/Indicator: THY INCORP (NON-S-PHASE), Metabolic Activation: NONE, Method: LIQUID SCINTILLATION COUNTING) was “active; positive”. In addition, the mutagenic call is, setting by setting: (Test System: UDS HUMAN TRACHEAL EPITHELIAL CELLS, Strain/Indicator: THY INCORP, Metabolic Activation: NONE, Method: AUTORADIOGRAPHY) “active; positive”; (Test System: UDS MOUSE SPERMATOGONIAL AND POSTSPERMATOGONIAL CELLS IN VIVO, Strain/Indicator: THYMIDINE INCORPORATION, Metabolic Activation: NONE, Method: AUTORADIOGRAPHY) “active; positive”.

As to `N[C@@H]1CCCCN1.[Cl][Pt][Cl]`, the mutagenic call by setting is: under setting [1], “active; positive”; under setting [2], “active; positive”; under setting [4], “active; positive”.

Take `O=CN(O)c1ccc(Oc2ccc(Cl)cc2)cc1`: the mutagenic call under setting [3] is “inactive; negative” and the mutagenic call (Test System: AMES SALMONELLA TYPHIMURIUM, Strain/Indicator: TA100, Metabolic Activation: RAT, LIVER, S-9, KANECLOR 500, Method: STANDARD PLATE) was “active; positive”.

`O=[N+]([O-])c1ccc2ccc3cccc([N+](=O)[O-])c3c2c1`: the mutagenic call runs as follows: (Test System: AMES SALMONELLA TYPHIMURIUM, Strain/Indicator: TA98(1,8-DNP6), Metabolic Activation: NONE, Method: STANDARD PLATE) “active; positive”; (Test System: AMES SALMONELLA TYPHIMURIUM, Strain/Indicator: TA98(NR), Metabolic Activation: NONE, Method: STANDARD PLATE) “active; positive”; (Test System: AMES SALMONELLA TYPHIMURIUM, Strain/Indicator: TA98, Metabolic Activation: NONE, Method: STANDARD PLATE) “active; positive”; under setting [3], “active; positive”; (Test System: AMES SALMONELLA TYPHIMURIUM, Strain/Indicator: YG1021, Metabolic Activation: NONE, Method: STANDARD PLATE) “active; positive”; (Test System: AMES SALMONELLA TYPHIMURIUM, Strain/Indicator: YG1024, Metabolic Activation: NONE, Method: STANDARD PLATE) “active; positive”. Moreover, the mutagenic call was “active; positive” (Test System: AMES SALMONELLA TYPHIMURIUM, Strain/Indicator: YG1026, Metabolic Activation: NONE, Method: STANDARD PLATE) and “active; positive” (Test System: AMES SALMONELLA TYPHIMURIUM, Strain/Indicator: YG1029, Metabolic Activation: NONE, Method: STANDARD PLATE).

Take `CC(=O)O[C@@H]1[C@H](OC(C)=O)COC(Nc2ccc([N+](=O)[O-])cc2)[C@@H]1OC(C)=O` (stereo partly specified): the mutagenic call under setting [3] was “active; positive”.

Regarding `CN(C)CCNC(=O)c1cccc2ncc(-c3ccccc3)nc12`, the mutagenic call (Test System: AMES SALMONELLA TYPHIMURIUM, Strain/Indicator: TA1537, Metabolic Activation: NONE, Method: STANDARD PLATE) was “active; positive”.

On to `Clc1ccc(CC2CO2)cc1` (stereo unspecified), for which the mutagenic call under setting [2] is “active; positive”; the mutagenic call under setting [3] is “active; positive”; the mutagenic call under setting [5] is “active; positive”; the mutagenic call (Test System: AMES SALMONELLA TYPHIMURIUM, Strain/Indicator: TA1535, Metabolic Activation: NONE, Method: STANDARD PLATE) is “active; positive”.
